Laboratory results from the NIST ThermoML archive (doi:10.1021/je3000876).

Columns and labels:
[1] = for viscosity / mass density: 101.33 kPa, Liquid; for viscosity: Cone and plate viscometry; for mass density: Vibrating tube method
[2] = refractive index (Na D-line) (dimensionless); conditions: 101.33 kPa, Liquid, Standard Abbe refractometry

NC(=O)Cn1cc[n+](CCCCn2cc[n+](CC(N)=O)c2)c1.O=S(=O)([N-]S(=O)(=O)C(F)(F)F)C(F)(F)F.O=S(=O)([N-]S(=O)(=O)C(F)(F)F)C(F)(F)F
Conditions	mass density, [1] [kg/m3]	refractive index, [2]	viscosity, [1] [mPa·s]
298.15 K	1590.17	1.4546	8689
303.15 K	1585.41	1.4532	4730
308.15 K	1580.62	1.4518	3285
313.15 K	1575.98	1.4504	2365
318.15 K	1572.04	1.4491	1824
323.15 K	1567.22	1.4477	1517
328.15 K	1562.31	1.4464	1323
333.15 K	1557.66	1.4451	1221
338.15 K	1552.61	1.4439	1129
343.15 K	1548.03	1.443	1098

Conditions	Glass transition temperature [°C]
[1], Glass, DTA	-40
